Data: patent US6600063B1, “Derivatives of phenyl 4-aminosalicylate and method of making the same” (priority 2000, dated 2003)
≈ marks a conversion by molar mass, not a printed value.

Experiments:
Assay in all cases: microbe, parasite or virus in culture
Assay type in all cases: cell-based
[1] = test system: M. tuberculosis EMB-R strain; details: Mycobacterium tuberculosis, read-out: MIC EMB-R (ug/ml)
[2] = test system: M. tuberculosis ETA-R strain; details: Mycobacterium tuberculosis, read-out: MIC ETA-R (ug/ml)
[3] = test system: M. tuberculosis strain resistant to isoniazid (ATCC 35822); details: Mycobacterium tuberculosis, ATCC35822, read-out: MIC INH-R (ug/ml)
[4] = test system: M. tuberculosis strain resistant to rifampin (ATCC 35838); details: Mycobacterium tuberculosis, ATCC35838, read-out: MIC RMP-R (ug/ml)

For O=C(Oc1ccccc1)c1ccc(NC(=S)Nc2ccccc2)cc1O [SAMPLE ID 131326], the MIC [1] was 0.2 µg/mL (≈ 0.549 µM), the MIC [2] was 0.2 µg/mL (≈ 0.549 µM) and the MIC [3] was ≤ 0.1 µg/mL. For the same compound, the MIC [4] was 0.2 µg/mL (≈ 0.549 µM).
